Data taken from US20230304058A1, “NOVEL 5'CAP ANALOG HAVING CAP2 STRUCTURE AND PREPARATION METHOD THEREFOR” (Shenzhen Rhegen Biotechnology Co., Ltd., priority 2020, published 2023).

Legend:
[1] = system: mRNA; experiment: mRNA capping rate by RNase H cleavage and LC-MS; format: biochemical; conditions: ratio of capped and uncapped mRNA
Excerpt: The mRNA molecules with different Cap structures obtained in Example 1 were subjected to enzymatic cleavage, and the ratio of capped and uncapped mRNA molecules could be determined in a liquid chromatography-mass spectrometry analysis experiment.
1. Concentrate the beads using a magnet, aspirate the supernatant storage solution, and add an equal volume of 0.1 M NaOH +0.05 M NaCl;
2. Aspirate the supernatant and resuspend the beads with an equal volume of 0.1 M NaCl, keep the concentration constant;
3. Anneal mRNA and cleavage tags, configure the following reaction system;
Gradient annealing: 95° C. 5 min
4. Combining cleavage tags with beads • Beads were centrifuged at 15,000 g for 5 min, and the supernatant was removed, then 120 μl of annealed mRNA and tags were added and incubated for 30 min at room temperature, during which time they were gently shaken to ensure adequate binding.
5. Enzyme cleavage using RNase H; • Add 10 μl RNase H and incubate at 37° C. for 3 h. Precipitate the beads with magnet and discard the supernatant. • Add 100 μl washing buffer, mix thoroughly, magnet precipitate for 2 min, and discard the supernatant. Repeat 3 times. • Wash with DI water for 3 times.
6. Hydrolysis with RppH; • Use 10 units RppH in nebuffer 2 to hydrolyze at room temperature for 1 h.
DI water was aspirated, 100 μl of 75% ethanol preheated to 80° C. was added, incubat for 3 min, and magnet precipitat for 3 min. The supernatant was taken, followed by evaporating, and centrifuge for 45 min to a volume of 10 μl. Finally, the sample was resuspended in 50 μl of […] EDTA/1% MeOH and left for LC-MS analysis.
9. the mRNA capping rate of different Cap analogs synthesized was analyzed with LC-MS.

[2] = system: TLR3, TLR7, TLR8 and RIG-1; experiment: Intracellular immunogenicity of capped mRNA by RNA immunoprecipitation and quantitative PCR; format: cell-based; conditions: relative to ARCA; Human-derived PBMC cells, 5 μg mRNA, Lipofectamine 2000, 24 h
Experimental: Experimental methods: the intracellular immunoproteins TLR3, TLR7, TLR8 and RIG-1 were immunoprecipitated together with their bound RNAs by RNA immunoprecipitation, and finally these mRNAs were identified by real-time quantitative PCR, and their relative abundance was proportional to their immunogenicity.
The cells were collected by trypsin digestion 24 h later and resuspended in PBS, centrifuged, and collected.
Fixative was added to the cells, and after 15 minutes glycine was added for termination of fixation, followed by centrifugation to collect the cells. Cells were resuspended by adding lysate, incubated on ice at 4° C. for 30 min, centrifuged at 2400 g for 10 min, and the supernatant was collected.
TLR3, TLR7, TLR8 and RIG-1 antibodies (2-10 μg) were added to the supernatant (6-10 mg) followed by gentle incubation at 4° C. for 2 hours. Protein AIG beads (40 μL) were then added to them and incubated gently for 1 h at 4° C.
Centrifuge at 2500 rpm for 30 seconds with precipitated magnetic beads and remove the supernatant. Resuspend the beads in 500 μL of RIP buffer. Wash in RIP buffer a total of three times, followed by one wash in PBS.
Resuspend magnetic beads in TRIzol RNA Extraction Reagent (1 mL) and isolate co-precipitated RNA, and then elute RNA using nuclease-free water (20 μL).
6. Reverse transcribe (RT) the RNA into cDNA and design primers according to the mRNA sequence for quantitative PCR analysis. mRNA immunogenicity is proportional to the number of mRNA copies precipitated by magnetic beads.

[3] = target: T7 Enzyme Mix (Escherichia phage T7, UniProt P00573); experiment: In vitro transcription mRNA synthesis with cap analog, reaction yield; format: biochemical; conditions: per ml transcription reaction system; 37° C. for 6 h; LiCl purification
Experimental: 1. Before synthesizing mRNA, linearize the plasmid with Notl, digested at […] overnight;
2. Extract with DNA template;
React at 37° C. for 6 h. Digest with TURBO DNase for 15 min.
4. Purify the transcription products using LiCl solution and calculate the reaction yields.

T7 Enzyme Mix, sequence (P00573 whole entry): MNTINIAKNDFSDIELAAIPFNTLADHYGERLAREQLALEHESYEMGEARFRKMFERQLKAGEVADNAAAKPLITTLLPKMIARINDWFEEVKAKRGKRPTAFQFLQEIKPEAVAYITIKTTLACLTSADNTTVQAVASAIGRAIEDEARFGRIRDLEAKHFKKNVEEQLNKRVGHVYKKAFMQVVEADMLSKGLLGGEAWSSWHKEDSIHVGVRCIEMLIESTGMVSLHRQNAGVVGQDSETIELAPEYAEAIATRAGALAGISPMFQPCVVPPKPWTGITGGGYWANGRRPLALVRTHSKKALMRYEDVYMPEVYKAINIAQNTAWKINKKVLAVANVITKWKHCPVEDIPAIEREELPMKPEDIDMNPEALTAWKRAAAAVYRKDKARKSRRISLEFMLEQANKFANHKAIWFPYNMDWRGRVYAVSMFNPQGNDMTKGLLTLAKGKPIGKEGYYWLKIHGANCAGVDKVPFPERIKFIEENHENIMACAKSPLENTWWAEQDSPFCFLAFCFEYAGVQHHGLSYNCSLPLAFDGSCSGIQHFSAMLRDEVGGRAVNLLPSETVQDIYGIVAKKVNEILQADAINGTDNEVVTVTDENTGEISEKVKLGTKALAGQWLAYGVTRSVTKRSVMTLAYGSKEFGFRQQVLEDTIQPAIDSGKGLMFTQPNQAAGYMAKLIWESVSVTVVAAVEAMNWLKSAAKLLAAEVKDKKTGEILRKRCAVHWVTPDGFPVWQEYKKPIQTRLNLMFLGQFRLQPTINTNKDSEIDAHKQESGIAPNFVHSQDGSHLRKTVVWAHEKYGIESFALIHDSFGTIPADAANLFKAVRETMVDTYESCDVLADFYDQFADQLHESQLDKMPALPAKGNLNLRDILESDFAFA

| SMILES | mRNA capping rates when using different Cap structures [1] [%] | Intracellular immunogenicity of mRNA when using different Cap structures [2] | Mass of final product obtained from 1 ml mRNA synthesis reaction system [3] [mg] |
| --- | --- | --- | --- |
| CO[C@@H]1[C@H](O)[C@@H](COP(=O)(O)O[C@H]2[C@@H](OC)[C@H](n3cnc4c(N)ncnc43)O[C@@H]2COP(=O)(O)OP(=O)(O)OP(=O)([O-])OC[C@H]2O[C@@H](n3c[n+](C)c4c(=O)[nH]c(N)nc43)[C@H](O)[C@@H]2O)O[C@H]1n1cnc2c(=O)[nH]c(N)nc21 [Cap analog 1, m7G(5′)ppp(5′)(2′OMeA)p(2′OMeG)] | 94.91 | 0.40 | 4.5 |
| CO[C@@H]1[C@H](O)[C@@H](COP(=O)(O)O[C@H]2[C@@H](OC)[C@H](n3cnc4c(=O)[nH]c(N)nc43)O[C@@H]2COP(=O)(O)OP(=O)(O)OP(=O)([O-])OC[C@H]2O[C@@H](n3c[n+](C)c4c(=O)[nH]c(N)nc43)[C@H](O)[C@@H]2O)O[C@H]1n1cnc2c(=O)[nH]c(N)nc21 [Cap analog 2, m7G(5′)ppp(5′)(2′OMeG)p(2′OMeG)] | 95.1 | 0.37 | 4.9 |
| CO[C@@H]1[C@H](OP(=O)(O)OC[C@H]2O[C@@H](n3cnc4c(=O)[nH]c(N)nc43)[C@H](OC)[C@@H]2O)[C@@H](COP(=O)(O)OP(=O)(O)OP(=O)([O-])OC[C@H]2O[C@@H](n3c[n+](C)c4c(=O)[nH]c(N)nc43)[C@H](O)[C@@H]2O)O[C@H]1n1ccc(N)nc1=O [Cap analog 3, m7G(5′)ppp(5′)(2′OMeC)p(2′OMeG)] | 94.82 | 0.28 | 5.8 |
| CO[C@@H]1[C@H](OP(=O)(O)OC[C@H]2O[C@@H](n3cnc4c(=O)[nH]c(N)nc43)[C@H](OC)[C@@H]2O)[C@@H](COP(=O)(O)OP(=O)(O)OP(=O)([O-])OC[C@H]2O[C@@H](n3c[n+](C)c4c(=O)[nH]c(N)nc43)[C@H](O)[C@@H]2O)O[C@H]1n1ccc(=O)[nH]c1=O [Cap analog 4, m7G(5′)ppp(5′)(2′OMeU)p(2′OMeG)] | 94.72 | 0.48 | 4.7 |
| CO[C@@H]1[C@H](O)[C@@H](COP(=O)(O)O[C@H]2[C@@H](OC)[C@H](n3cnc4c(N)ncnc43)O[C@@H]2COP(=O)(O)OP(=O)(O)OP(=O)([O-])OC[C@H]2O[C@@H](n3c[n+](C)c4c(=O)[nH]c(N)nc43)[C@H](O)[C@@H]2O)O[C@H]1n1cnc2c(N)ncnc21 [Cap analog 5, m7G(5′)ppp(5′)(2′OMeA)p(2′OMeA)] | 94.88 | 0.52 | 4.4 |
| CO[C@@H]1[C@H](O)[C@@H](COP(=O)(O)O[C@H]2[C@@H](OC)[C@H](n3cnc4c(=O)[nH]c(N)nc43)O[C@@H]2COP(=O)(O)OP(=O)(O)OP(=O)([O-])OC[C@H]2O[C@@H](n3c[n+](C)c4c(=O)[nH]c(N)nc43)[C@H](O)[C@@H]2O)O[C@H]1n1cnc2c(N)ncnc21 [Cap analog 6, m7G(5′)ppp(5′)(2′OMeG)p(2′OMeA)] | 94.65 | 0.38 | 5.1 |
| CO[C@@H]1[C@H](OP(=O)(O)OC[C@H]2O[C@@H](n3cnc4c(N)ncnc43)[C@H](OC)[C@@H]2O)[C@@H](COP(=O)(O)OP(=O)(O)OP(=O)([O-])OC[C@H]2O[C@@H](n3c[n+](C)c4c(=O)[nH]c(N)nc43)[C@H](O)[C@@H]2O)O[C@H]1n1ccc(N)nc1=O [Cap analog 7, m7G(5′)ppp(5′)(2′OMeC)p(2′OMeA)] | 94.76 | 0.24 | 5.3 |
| CO[C@@H]1[C@H](OP(=O)(O)OC[C@H]2O[C@@H](n3cnc4c(N)ncnc43)[C@H](OC)[C@@H]2O)[C@@H](COP(=O)(O)OP(=O)(O)OP(=O)([O-])OC[C@H]2O[C@@H](n3c[n+](C)c4c(=O)[nH]c(N)nc43)[C@H](O)[C@@H]2O)O[C@H]1n1ccc(=O)[nH]c1=O [Cap analog 8, m7G(5′)ppp(5′)(2′OMeU)p(2′OMeA)] | 94.79 | 0.31 | 5.3 |
| CO[C@@H]1[C@H](O)[C@@H](COP(=O)(O)O[C@H]2[C@@H](OC)[C@H](n3cnc4c(N)ncnc43)O[C@@H]2COP(=O)(O)OP(=O)(O)OP(=O)([O-])OC[C@H]2O[C@@H](n3c[n+](C)c4c(=O)[nH]c(N)nc43)[C@H](O)[C@@H]2O)O[C@H]1n1ccc(N)nc1=O [Cap analog 9, m7G(5′)ppp(5′)(2′OMeA)p(2′OMeC)] | 94.73 | 0.4 | 4.8 |
| CO[C@@H]1[C@H](O)[C@@H](COP(=O)(O)O[C@H]2[C@@H](OC)[C@H](n3cnc4c(=O)[nH]c(N)nc43)O[C@@H]2COP(=O)(O)OP(=O)(O)OP(=O)([O-])OC[C@H]2O[C@@H](n3c[n+](C)c4c(=O)[nH]c(N)nc43)[C@H](O)[C@@H]2O)O[C@H]1n1ccc(N)nc1=O [Cap analog 10, m7G(5′)ppp(5′)(2′OMeG)p(2′OMeC)] | 94.93 | 0.18 | 6.0 |
| CO[C@@H]1[C@H](O)[C@@H](COP(=O)(O)O[C@H]2[C@@H](OC)[C@H](n3ccc(N)nc3=O)O[C@@H]2COP(=O)(O)OP(=O)(O)OP(=O)([O-])OC[C@H]2O[C@@H](n3c[n+](C)c4c(=O)[nH]c(N)nc43)[C@H](O)[C@@H]2O)O[C@H]1n1ccc(N)nc1=O [Cap analog 11, m7G(5′)ppp(5′)(2′OMeC)p(2′OMeC)] | 95.2 | 0.31 | 4.7 |
| CO[C@@H]1[C@H](O)[C@@H](COP(=O)(O)O[C@H]2[C@@H](OC)[C@H](n3ccc(=O)[nH]c3=O)O[C@@H]2COP(=O)(O)OP(=O)(O)OP(=O)([O-])OC[C@H]2O[C@@H](n3c[n+](C)c4c(=O)[nH]c(N)nc43)[C@H](O)[C@@H]2O)O[C@H]1n1ccc(N)nc1=O [Cap analog 12, m7G(5′)ppp(5′)(2′OMeU)p(2′OMeC)] | 94.86 | 0.19 | 4.9 |
| CO[C@@H]1[C@H](O)[C@@H](COP(=O)(O)O[C@H]2[C@@H](OC)[C@H](n3cnc4c(N)ncnc43)O[C@@H]2COP(=O)(O)OP(=O)(O)OP(=O)([O-])OC[C@H]2O[C@@H](n3c[n+](C)c4c(=O)[nH]c(N)nc43)[C@H](O)[C@@H]2O)O[C@H]1n1ccc(=O)[nH]c1=O [Cap analog 13, m7G(5′)ppp(5′)(2′OMeA)p(2′OMeU)] | 94.77 | 0.23 | 5.1 |
| CO[C@@H]1[C@H](O)[C@@H](COP(=O)(O)O[C@H]2[C@@H](OC)[C@H](n3cnc4c(=O)[nH]c(N)nc43)O[C@@H]2COP(=O)(O)OP(=O)(O)OP(=O)([O-])OC[C@H]2O[C@@H](n3c[n+](C)c4c(=O)[nH]c(N)nc43)[C@H](O)[C@@H]2O)O[C@H]1n1ccc(=O)[nH]c1=O [Cap analog 14, m7G(5′)ppp(5′)(2′OMeG)p(2′OMeU)] | 94.82 | 0.35 | 5.5 |
